Experimental data from patent US7045528B2, “Benzofused heterozryl amide derivatives of thienopyridines useful as therapeutic agents, pharmaceutical compositions including the same, and methods for their use” (Agouron Pharmaceuticals, Inc., priority 2002, dated 2006).

Tests used:
Huvec = experiment: bFGF Huvec proliferation; assay type: cell-based, human
[1] = biological target: T1, unphosphorylated VEGF-R2Δ50 (FLVK) (Homo sapiens, UniProt P35968, DEL940-989/E990V); experiment: VEGF-R2 coupled spectrophotometric assay, unphosphorylated VEGF-R2Δ50 (FLVK); assay type: biochemical; conditions: unphosphorylated VEGF-R2Δ50; for inhibition at 0.05 µM: read-out: FLVK (% inh @ 50 nM)
T1 construct: VEGF-R2Δ50 contains residues 806–939 and 990–1171; made in house; host or cells: baculovirus/insect cell system
T1 sequence (P35968 with tags, fused parts or gaps DEL940-989/E990V limits assumed): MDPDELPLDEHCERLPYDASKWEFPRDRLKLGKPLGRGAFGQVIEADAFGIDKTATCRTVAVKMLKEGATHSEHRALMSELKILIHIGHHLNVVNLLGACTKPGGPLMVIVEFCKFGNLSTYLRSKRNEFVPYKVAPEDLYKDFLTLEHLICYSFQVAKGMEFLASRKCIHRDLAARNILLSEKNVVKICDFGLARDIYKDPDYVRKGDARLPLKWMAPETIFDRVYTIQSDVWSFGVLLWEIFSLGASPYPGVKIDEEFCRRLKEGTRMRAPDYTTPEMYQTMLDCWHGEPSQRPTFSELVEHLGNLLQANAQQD
Summary of the method: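 Ki obtained by Morrison-equation fitting of activity at varied compound levels; reaction started with 5–40 nM enzyme. Non-autophosphorylated kinase construct (insect cell-expressed) with 3 mM ATP, 20 mM poly(E4Y1), 60 mM MgCl2 plus 2 mM MnCl2, pH 7.5 HEPES; NADH loss at 340 nm via PK/LDH coupling.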

[2] = tested on: human umbilical vein endothelial cells (HUVEC); experiment: HUVEC+VEGF proliferation assay; assay type: cell-based; conditions: VEGF 6 ng/mL, 72 h, MTT
Protocol: HUVEC+VEGF Proliferation Assay
This assay determines the ability of a test compound to inhibit the growth factor-stimulated proliferation of human umbilical vein endothelial cells (“HUVEC”). HUVEC cells (passage 3–4; Clonetics, Corp.) were thawed into EGM2 culture medium (Clonetics Corp) in T75 flasks. Fresh EGM2 medium was added to the flasks 24 hours later. Four or five days later, cells were exposed to another culture medium (F12K medium supplemented with 10% fetal bovine serum (FBS), 60 μg/mL endothelial cell growth supplement (ECGS), and 0.1 mg/mL heparin). Exponentially-growing HUVEC cells were used in experiments thereafter. Ten to twelve thousand HUVEC cells were plated in 96-well dishes in 100 μl of rich, culture medium (described above). The cells were allowed to attach for 24 hours in this medium. The medium was then removed by aspiration and 105 μl of starvation media (F12K+1% FBS) was added to each well. After 24 hours, 15 μl of test agent dissolved in 1% DMSO in starvation medium or this vehicle alone was added into each treatment well; the final DMSO concentration was 0.1%. One hour later, 30 μl of VEGF (30 ng/mL) in starvation media was added to all wells except those containing untreated controls; the final VEGF concentration was 6 ng/mL. Cellular proliferation was quantified 72 hours later by MTT dye reduction, at which time cells were exposed for 4 hours MTT (Promega Corp.). Dye reduction was stopped by addition of a stop solution (Promega Corp.) and absorbance at 595 nm was determined on a 96-well spectrophotometer plate reader.

PDGFRβ = biological target: T2, PDGFRβ (Homo sapiens, UniProt P09619); experiment: PAE-PDGFRβ phosphorylation in PAE-PDGFRB cells assay; assay type: cell-based; conditions: PAE cells overexpressing human PDGFRβ, PDGF-BB stimulated; read-out: PAE PDGFR autophos IC50 (nM) AVG
T2 construct: expressed in transfected cells; host or cells: porcine aorta endothelial (PAE)-PDGFRβ cells
T2 sequence (P09619 33-1106): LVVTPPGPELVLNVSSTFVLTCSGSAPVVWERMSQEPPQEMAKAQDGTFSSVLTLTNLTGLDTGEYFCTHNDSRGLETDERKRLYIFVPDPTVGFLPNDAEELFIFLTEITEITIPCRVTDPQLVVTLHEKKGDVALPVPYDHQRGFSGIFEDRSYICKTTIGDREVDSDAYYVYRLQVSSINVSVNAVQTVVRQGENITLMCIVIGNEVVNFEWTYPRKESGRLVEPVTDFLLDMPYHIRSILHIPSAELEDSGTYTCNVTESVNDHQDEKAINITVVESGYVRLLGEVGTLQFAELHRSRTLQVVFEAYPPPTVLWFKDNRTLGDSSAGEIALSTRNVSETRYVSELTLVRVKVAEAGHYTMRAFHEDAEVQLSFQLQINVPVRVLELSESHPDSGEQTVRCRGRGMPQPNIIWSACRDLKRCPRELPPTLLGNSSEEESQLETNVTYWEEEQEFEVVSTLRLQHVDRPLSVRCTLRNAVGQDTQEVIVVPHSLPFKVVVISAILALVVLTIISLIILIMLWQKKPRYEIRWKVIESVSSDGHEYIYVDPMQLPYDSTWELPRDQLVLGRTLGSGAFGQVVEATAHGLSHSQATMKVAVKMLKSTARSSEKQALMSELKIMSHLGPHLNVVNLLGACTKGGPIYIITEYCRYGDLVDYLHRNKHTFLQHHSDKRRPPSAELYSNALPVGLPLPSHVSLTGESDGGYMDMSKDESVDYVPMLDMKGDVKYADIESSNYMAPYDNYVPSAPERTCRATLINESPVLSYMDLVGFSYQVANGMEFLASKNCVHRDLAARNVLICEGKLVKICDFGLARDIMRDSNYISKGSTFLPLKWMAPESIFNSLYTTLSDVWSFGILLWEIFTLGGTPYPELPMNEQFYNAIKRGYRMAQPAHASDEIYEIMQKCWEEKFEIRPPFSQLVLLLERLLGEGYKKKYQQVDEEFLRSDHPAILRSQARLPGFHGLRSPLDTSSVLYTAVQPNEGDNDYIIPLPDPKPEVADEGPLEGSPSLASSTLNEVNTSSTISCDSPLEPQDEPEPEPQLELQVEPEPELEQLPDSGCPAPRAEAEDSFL
Protocol: PAE-PDGFRβ Phosphorylation in PAE-PDGFRB Cells Assay
This assay determines the ability of a test compound to inhibit the autophosphorylation of PDGFRβ in porcine aorta endothelial (PAE)-PDGFRβ cells. PAE cells that overexpress human PDGFRβ were used in this assay. The cells were cultured in Ham's F12 media supplemented with 10% fetal bovine serum (FBS) and 400 ug/ml G418. Twenty thousands cells were seeded in each well of a 96-well plate in 50 μL of growth media and allowed to attach for 6 hours at 37° C. Cells were then exposed to the starvation media (Ham's F12 media supplemented with 0.1% FBS) for 16 hours. After the starvation period was over, 10 μL of test agent in 5% DMSO in starvation media were added to the test wells and 10 μL of the vehicle (5% DMSO in starvation media) were added into the control wells. The final DMSO concentration in each well was 0.5%. Plates were incubated at 37° C. for 1 hour and the cells were then stimulated with 1 μg/mL PDGF-BB (R & D System) in the presence of 2 mM Na3VO4 for 8 minutes. The cells were washed once with 1 mm Na3VO4 in HBSS and lysed by adding 50 μL per well of lysis buffer. One hundred μL of dilution buffer were then added to each well and the diluted cell lysate was transferred to a 96-well goat ant-rabbit coated plate (Pierce), which was pre-coated with Rabbit anti Human PDGFRβ antibody (Santa Cruz). The plates were incubated at room temperature for 2 hours and washed seven times with 1% Tween 20 in PBS. HRP-PY20 (Santa Cruz) was diluted and added to the plate for a 30-minute incubation. Plates were then washed again and TMB peroxidase substrate (Kirkegaard & Perry) was added for a 10-minute incubation. One hundred μL of 0.09 N H2SO4 was added into each well of the 96-well plate to stop the reaction. Phosphorylation status was assessed by spectrophotometer reading at 450 nm. IC50 values were calculated by curve fitting using a four-parameter analysis.

| Compound | inhibition at 0.05 µM ([1]; 50 nM compound) | Ki [1] | IC50 (PDGFRβ) | IC50 (Huvec; Homo sapiens, HUVEC) | IC50 ([2]; Homo sapiens, HUVEC) | IC50 (Huvec; bFGF) | FLVK (% inh @ 50 nM) ([1]; 50 nM compound) | IC50 [2] |
| --- | --- | --- | --- | --- | --- | --- | --- | --- |
| CNC(=O)c1c(C)[nH]c2cc(Oc3ccnc4cc(C(=O)N5CC[C@@H](O)C5)sc34)ccc12 [Example 24, 6-[2-(3-Hydroxy-pyrrolidine-1-carbonyl)-thieno[3,2-b]pyridin-7-yloxy]-2-methyl-1H-indole-3-carboxylic acid methylamide] | 69% | 4.2 nM | – | 10000 nM | 32 nM | – | – | – |
| Cc1oc2cc(Oc3ccnc4ccsc34)ccc2c1C(=O)Nc1nnc(-c2ccccc2)s1 [Example 106, 2-Methyl-6-(thieno[3,2-b]pyridin-7-yloxy)-benzofuran-3-carboxylic acid (5-phenyl-[1,3,4]thiadiazol-2-yl)-amide] | 98% | – | – | 638 nM | 10 nM | – | – | – |
| CNC(=O)c1c(C)n(C)c2cc(Oc3ccnc4cc(-c5nc(CO)cs5)sc34)ccc12 [Example 26, 1,2-Dimethyl-6-(2-[4-(hydroxymethyl)thiazol-2-yl]thieno[3,2-b]pyridin-7-yloxy)-1H-indole-3-carboxylic acid methylamide] | 83% | 3.66 nM | 13 nM | 2230 nM | 0.74 nM | – | – | – |
| Cc1c(C(=O)NCC2CC2)c2ccc(Oc3ccnc4cc(C(=O)N5CC[C@@H](O)C5)sc34)cc2n1C [Example 56] | 60% | 3.8 nM | 109 nM | 10000 nM | 22 nM | – | – | – |
| CNC(=O)c1c(C)n(C)c2cc(Oc3ccnc4cc(C(=O)N(C)C)sc34)ccc12 [Example 33, 7-({1,2-Dimethyl-3-[(methylamino)carbonyl]-1H-indol-6-yl}oxy)-N,N-dimethylthieno[3,2-b]pyridine-2-carboxamide] | 61% | 11.5 nM | 63 nM | 10000 nM | 10 nM | – | – | – |
| Methoxy-azetidine-1-carbonyl)-thieno[3,2-b]pyridin-7-yloxy]-2-methyl-benzofuran-3-carboxylic acid methylamide [Example 78] | – | 0.221 nM | 14.8 nM | – | – | 30 nM | 93% | 0.507 nM |
| CNC(=O)c1c(C)n(C)c2cc(Oc3ccnc4cc(C(=O)N5CCC[C@H]5CO)sc34)ccc12 [Example 16, 6-[2-(2-Hydroxymethyl-pyrrolidine-1-carbonyl)-thieno[3,2-b]pyridin-7-yloxy]-1,2-dimethyl-1H-indole-3-carboxylic acid methylamide] | 46% | 8.14 nM | – | 1000 nM | 10 nM | – | – | – |
| Cc1c(C(=O)NCCCO)c2ccc(Oc3ccnc4cc(C(=O)N5CC[C@@H](O)C5)sc34)cc2n1C [Example 64, 6-[2-((R)-3-Hydroxy-pyrrolidine-1-carbonyl)-thieno[3,2-b]pyridin-7-yloxy]-1,2-dimethyl-1H-indole-3-carboxylic acid (3-hydroxy-propyl)-amide] | 64% | 11.8 nM | – | 10000 nM | 10 nM | – | – | – |

Continued by falling Ki [1], values first:

| inhibition at 0.05 µM ([1]; 50 nM compound) | Ki [1] | IC50 (PDGFRβ) | Compound | IC50 (Huvec; Homo sapiens, HUVEC) | IC50 ([2]; Homo sapiens, HUVEC) | IC50 (Huvec; bFGF) | FLVK (% inh @ 50 nM) ([1]; 50 nM compound) | IC50 [2] |
| --- | --- | --- | --- | --- | --- | --- | --- | --- |
| 71% | 3.3 nM | 22.1 nM | CNC(=O)c1c(C)n(C)c2cc(Oc3ccnc4cc(-c5nccs5)sc34)ccc12 [Example 41, 1,2-Dimethyl-6-(2-thiazol-2-yl-thieno[3,2-b]pyridin-7-yloxy)-1H-indole-3-carboxylic acid methylamide] | 1220 nM | 3.7 nM | – | – | – |
| 78% | 2.8 nM | 15 nM | CNC(=O)c1c(C)n(C)c2cc(Oc3ccnc4cc(C(=O)N5CCCC5)sc34)ccc12 [Example 28, 1,2-Dimethyl-6-[2-(pyrrolidine-1-carbonyl)-thieno[3,2-b]pyridin-7-yloxy]-1H-indole-3-carboxylic acid methylamide] | 462 nM | 0.272 nM | – | – | – |
| 80% | 1.78 nM | 467 nM | COC[C@@H]1CCCN1C(=O)c1cc2nccc(Oc3ccc4c(C(=O)NCC5CC5)c(C)sc4c3)c2s1 [Example 132, 6[(2-{[(2S)-2-(Methoxymethyl)pyrrolidin-1-yl]carbonyl}thieno[3,2-b]pyridin-7-yl)oxy]-2-methylbenzo[b]thiophene-3-carboxyllc acid (cyclopropylmethyl)amide] | – | 5.8 nM | – | – | – |
| 81% | 1.46 nM | – | CCc1oc2cc(Oc3ccnc4cc(C(=O)N5CC[C@@H](OC)C5)sc34)ccc2c1C(=O)NC [Example 14, 6-(2-[3-methoxypyrrolidine-1-carbonyl]thieno[3,2-b]pyridin-7-yloxy)-2-ethylbenzofuran-3-carboxylic acid methylamide] | 287 nM | 9.4 nM | – | – | – |
| 84% | 1.2 nM | – | Cc1sc2cc(Oc3ccnc4cc(-c5nccn5C)sc34)ccc2c1C(=O)NCCCO [Example 118, 2-Methyl-6-{[2-(1-methyl-1H-imidazol-2-yl)thieno[3,2-b]pyridin-7-yl]oxy}benzo[b]thiophene-3-carboxylic acid 3-hydroxypropylamide] | 736 nM | 0.9 nM | – | – | – |
| 85% | 0.78 nM | 110 nM | CCc1sc2cc(Oc3ccnc4cc(C(=O)N5CCC5)sc34)ccc2c1C(=O)NC [Example 138, 6-{[2-(Azetidin-1-ylcarbonyl)thieno[3,2-b]pyridin-7-yl]oxy}-2-ethylbenzo[b]thiophene-3-carboxylic acid methylamide] | – | 9.9 nM | – | – | – |
| 94% | 0.58 nM | 12.4 nM | Cc1oc2cc(Oc3ccnc4cc(-c5nccn5C)sc34)ccc2c1C(=O)NCC(C)C [Example 84, 2-Methyl-6-[2-(1-methyl-1H-imidazol-2-yl)-thieno[3,2-b]pyridin-7-yloxy]-benzofuran-3-carboxylic acid isobutyl amide] | 429 nM | 0.322 nM | – | – | – |
| 95% | 0.419 nM | 250 nM | CO[C@@H]1CCN(C(=O)c2cc3nccc(Oc4ccc5c(C(=O)NC6CC6)c(C)oc5c4)c3s2)C1 [Example 89, 6-[2-(3-Methoxypyrrolidine-1-carbonyl)-thieno[3,2-b]pyridin-7-yloxy]-2-methyl-benzofuran-3-carboxylic acid cyclopropylamide] | 5.2 nM | – | – | – | – |
| 95% | 0.219 nM | 179 nM | CO[C@@H]1CCN(C(=O)c2cc3nccc(Oc4ccc5c(C(=O)NCC6CC6)c(C)sc5c4)c3s2)C1 [Example 125, 6-[(2-{[(3R)-3-Methoxypyrrolidin-1-yl]carbonyl}thieno[3,2-b]pyridin-7-yl)oxy]-2-methylbenzo[b]thiophene-3-carboxylic acid (cyclopropylmethyl)amide] | 969 nM | 2 nM | – | – | – |
